By IC50 is commonly meant the concentration that gives 50% inhibition.

Data set [1] addresses T1, Cathepsin S (Homo sapiens, UniProt P25774). The data set can be described thus: Inhibition of cathepsin S in human JY cells assessed as accumulation of invariant chain p10 fragment after 24 hrs by Western blot analysis. It counts as cell-based.
Data set [2] deals with T1, Cathepsin S. The data set can be described thus: Inhibition of human cathepsin S by ADAM-28 substrate-based fluorescence assay.
The target in data set [3] is Voltage-gated inwardly rectifying potassium channel KCNH2 (Homo sapiens, UniProt Q12809). The data set can be described thus: Inhibition of human ERG by astemizole binding assay.
Voltage-gated inwardly rectifying potassium channel KCNH2, sequence (Q12809 whole entry): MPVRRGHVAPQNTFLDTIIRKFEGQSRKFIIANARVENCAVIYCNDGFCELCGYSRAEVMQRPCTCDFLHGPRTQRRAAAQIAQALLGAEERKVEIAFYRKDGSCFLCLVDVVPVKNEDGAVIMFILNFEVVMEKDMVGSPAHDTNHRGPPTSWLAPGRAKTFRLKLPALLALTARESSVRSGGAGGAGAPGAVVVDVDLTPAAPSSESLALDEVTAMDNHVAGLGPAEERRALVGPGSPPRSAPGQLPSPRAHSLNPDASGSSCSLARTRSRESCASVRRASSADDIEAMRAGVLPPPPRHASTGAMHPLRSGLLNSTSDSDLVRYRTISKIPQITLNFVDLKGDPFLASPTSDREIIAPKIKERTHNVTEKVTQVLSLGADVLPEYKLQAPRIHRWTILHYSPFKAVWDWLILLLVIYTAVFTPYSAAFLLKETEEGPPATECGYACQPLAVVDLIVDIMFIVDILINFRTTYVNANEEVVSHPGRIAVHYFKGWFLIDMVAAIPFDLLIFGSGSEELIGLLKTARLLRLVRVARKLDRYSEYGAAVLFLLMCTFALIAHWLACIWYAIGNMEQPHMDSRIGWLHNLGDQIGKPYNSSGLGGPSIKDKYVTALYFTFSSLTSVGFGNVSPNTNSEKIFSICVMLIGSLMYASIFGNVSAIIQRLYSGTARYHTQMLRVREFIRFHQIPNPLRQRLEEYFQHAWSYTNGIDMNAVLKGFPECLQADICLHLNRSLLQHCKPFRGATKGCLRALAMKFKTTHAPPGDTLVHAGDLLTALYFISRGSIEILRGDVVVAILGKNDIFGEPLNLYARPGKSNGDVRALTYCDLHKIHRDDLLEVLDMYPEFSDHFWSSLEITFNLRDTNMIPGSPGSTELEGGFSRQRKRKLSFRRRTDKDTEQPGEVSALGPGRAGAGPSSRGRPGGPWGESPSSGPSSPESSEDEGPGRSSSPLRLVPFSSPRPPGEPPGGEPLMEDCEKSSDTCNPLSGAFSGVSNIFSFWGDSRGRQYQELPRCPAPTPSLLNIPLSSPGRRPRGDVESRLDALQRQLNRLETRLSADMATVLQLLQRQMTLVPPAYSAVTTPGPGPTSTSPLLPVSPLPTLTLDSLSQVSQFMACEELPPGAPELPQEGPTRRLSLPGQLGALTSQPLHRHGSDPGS

T1 sequence (P25774 whole entry, the tested form may be a part): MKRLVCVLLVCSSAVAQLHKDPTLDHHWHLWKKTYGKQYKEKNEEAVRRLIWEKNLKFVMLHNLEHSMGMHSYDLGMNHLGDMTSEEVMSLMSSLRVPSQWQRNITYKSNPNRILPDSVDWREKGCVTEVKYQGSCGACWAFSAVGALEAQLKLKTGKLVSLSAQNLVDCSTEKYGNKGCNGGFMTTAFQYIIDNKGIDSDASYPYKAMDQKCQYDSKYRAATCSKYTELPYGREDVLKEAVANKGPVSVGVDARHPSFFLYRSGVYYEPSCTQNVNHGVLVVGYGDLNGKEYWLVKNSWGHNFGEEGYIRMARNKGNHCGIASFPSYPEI

Consider `CS(=O)(=O)N1CCc2c(c(-c3ccc(C(F)(F)F)c(SCCN4CCC(F)CC4)c3)nn2C[C@H](O)CN2CCCCC2)C1`, for which the IC50 on Cathepsin S [1] worked out at 810 nM; against Cathepsin S [2], 395 nM. In the same order, the values of `CS(=O)(=O)N1CCc2c(c(-c3ccc(C(F)(F)F)c(SCCN4CCC(F)CC4)c3)nn2C[C@@H](O)CN2CCCCC2)C1` are 120 nM and 58 nM. As for `NC(=O)N1CCc2c(c(-c3ccc(C(F)(F)F)c(SCCN4CCC(F)CC4)c3)nn2C[C@@H](O)CN2CCCCC2)C1`, 235 nM corresponded to half-maximal inhibition against Cathepsin S [2] (IC50).

At Cathepsin S [2], `O=C(c1cccs1)N1CCc2c(c(-c3ccc(C(F)(F)F)c(SCCN4CCC(F)CC4)c3)nn2C[C@@H](O)CN2CCCCC2)C1` registered an IC50 of 355 nM. Turning to `O=C(c1nc[nH]n1)N1CCc2c(c(-c3ccc(C(F)(F)F)c(SCCN4CCC(F)CC4)c3)nn2C[C@@H](O)CN2CCCCC2)C1`, the IC50 at Cathepsin S [1] is 320 nM; at Cathepsin S [2] it was 205 nM. With `CC(=O)N1CCc2c(c(-c3ccc(C(F)(F)F)c(SCCN4CCC(F)CC4)c3)nn2C[C@@H](O)CN2CCCCC2)C1`, on Cathepsin S [2], the IC50 was determined as 385 nM. On the same count and under the same terms, to `O=C(CO)N1CCc2c(c(-c3ccc(C(F)(F)F)c(SCCN4CCC(F)CC4)c3)nn2C[C@@H](O)CN2CCCCC2)C1` belongs 235 nM; to `CC(O)C(=O)N1CCc2c(c(-c3ccc(C(F)(F)F)c(SCCN4CCC(F)CC4)c3)nn2C[C@@H](O)CN2CCCCC2)C1` (stereo partly specified), 245 nM. For `NC(=O)C(=O)N1CCc2c(c(-c3ccc(C(F)(F)F)c(SCCN4CCC(F)CC4)c3)nn2C[C@@H](O)CN2CCCCC2)C1`, the IC50 at Cathepsin S [1] came to 190 nM; at Cathepsin S [2] it was 70 nM. Regarding `OC(CN1CCCCC1)Cn1nc(-c2ccc(C(F)(F)F)c(SCCN3CCC(F)CC3)c2)c2c1CCNC2` (stereo unspecified), on Cathepsin S [2], the IC50 came to 9600 nM.

In the case of `CS(=O)(=O)N1CCc2c(c(-c3ccc(C(F)(F)F)c(SCCN4CCCCC4)c3)nn2CC(O)CN2CCC(C(=O)N3CCCC3)CC2)C1` (racemic), the half-inhibitory concentration (IC50) at Cathepsin S [1] is 96 nM. As to `CS(=O)(=O)N1CCc2c(c(-c3ccc(C(F)(F)F)c(SCCN4CCCCC4)c3)nn2CC(O)CN2CCCCC2)C1` (racemic), the results for the IC50 at Cathepsin S [1] and at Cathepsin S [2] were 335 nM and 204 nM, respectively.

Regarding `CS(=O)(=O)N1CCc2c(c(-c3ccc(C(F)(F)F)c(SCCN4CCCCC4)c3)nn2CC(O)CN2CCCC2)C1` (racemic), the IC50 was 401 nM at Cathepsin S [1] and 335 nM at Cathepsin S [2]. In the case of `CS(=O)(=O)N1CCc2c(c(-c3ccc(C(F)(F)F)c(SCCN4CCCCC4)c3)nn2CC(O)CN2CCOCC2)C1` (racemic), the IC50 at Cathepsin S [1] was determined as 889 nM; against Cathepsin S [2], 325 nM.

Turning to `CS(=O)(=O)N1CCc2c(c(-c3ccc(C(F)(F)F)c(SCCN4CCCCC4)c3)nn2CC(O)CN2CCN(C3CC3)CC2)C1` (racemic), the IC50 at Cathepsin S [1] worked out at 220 nM.

Take `CS(=O)(=O)N1CCc2c(c(-c3ccc(C(F)(F)F)c(SCCN4CCCCC4)c3)nn2CC(O)CN2CCC(C3CCCC3)CC2)C1` (racemic): the results for the IC50 on Cathepsin S [1] and at Cathepsin S [2] were 81 nM and 218 nM, respectively.

With `CS(=O)(=O)N1CCc2c(c(-c3ccc(C(F)(F)F)c(SCCN4CCCCC4)c3)nn2CC(O)CN2CCC(c3ccccc3C#N)CC2)C1` (racemic), the “inhibition (INH)” value in data set [3] is “Active”. The IC50 at Cathepsin S [1] stood at 160 nM; against Cathepsin S [2], 10 nM. Turning to `CS(=O)(=O)N1CCc2c(c(-c3ccc(C(F)(F)F)c(SCCN4CCCCC4)c3)nn2CC(O)CN2CCC(c3ccccn3)CC2)C1` (racemic), the “inhibition (INH)” value in data set [3] is “Active”. For the same compound, the IC50 at Cathepsin S [1] was determined as 62 nM. As to `CS(=O)(=O)N1CCc2c(c(-c3ccc(C(F)(F)F)c(SCCN4CCCCC4)c3)nn2CC(O)CN2CCC(N3CCCC3=O)CC2)C1` (racemic), on Cathepsin S [1], the IC50 was 152 nM.

In the case of `CS(=O)(=O)N1CCc2c(c(-c3ccc(C(F)(F)F)c(SCCN4CCOCC4)c3)nn2CC(O)CN2CCCCC2)C1` (racemic), the half-inhibitory concentration (IC50) on Cathepsin S [1] was 2520 nM; against Cathepsin S [2], 420 nM. On to `CS(=O)(=O)N1CCc2c(c(-c3ccc(C(F)(F)F)c(SCCN4CCCC4)c3)nn2CC(O)CN2CCCCC2)C1` (racemic), for which the IC50 at Cathepsin S [1] was found to be 458 nM.

Consider `CS(=O)(=O)N1CCc2c(c(-c3ccc(C(F)(F)F)c(SCCN4CCC(F)CC4)c3)nn2CC(O)CN2CCCCC2)C1` (racemic), for which the IC50 at Cathepsin S [1] was determined as 493 nM. `CS(=O)(=O)N1CCc2c(c(-c3ccc(C(F)(F)F)c(SCCN)c3)nn2CC(O)CN2CCCCC2)C1` (racemic): at Cathepsin S [2], the midpoint of inhibition, the IC50, lay at 1130 nM.

`CCCNCC(O)Cn1nc(-c2ccc(C(F)(F)F)c(SCCN3CCCCC3)c2)c2c1CCN(S(C)(=O)=O)C2` (racemic) showed an IC50 against Cathepsin S [2] of 595 nM.

Source of the values: ChEMBL document CHEMBL1156272, “Discovery and SAR of novel pyrazole-based thioethers as cathepsin S inhibitors. Part 2: Modification of P3, P4, and P5 regions” (Bioorg Med Chem Lett, 2010).
